Experimental data: ChEMBL document CHEMBL1201862, “PubChem BioAssay data set” (2004)
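Following 48 hours of exposure in 96-well plates, responses at five concentrations were used to interpolate endpoints linearly. At the GI50, growth is halved.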 Active and inactive are the calls of the source. Rule as the data show it: active = GI50 up to about 1.1 µM and inactive = higher.

Experiments:
Assay in all cases: NCI tumour cell line growth inhibition, 48 h
PC-3 = system: PC-3
SK-OV-3 = system: SK-OV-3
HCT-15 = system: HCT-15
RXF 393 = system: RXF 393
NCI/ADR-RES = system: NCI/ADR-RES
HCT-116 = system: HCT-116
SF-295 = system: SF-295
T47D = system: T47D
NCI-H460 = system: NCI-H460
SK-MEL-2 = system: SK-MEL-2
SF-268 = system: SF-268
A498 = system: A498
K562 = system: K562
SNB-19 = system: SNB-19
OVCAR-4 = system: OVCAR-4
A549 = system: A549
OVCAR-5 = system: OVCAR-5
MDA-MB-435 = system: MDA-MB-435
UO-31 = system: UO-31
HOP-62 = system: HOP-62

SMILES	GI50 (PC-3)	GI50 (SK-OV-3)	GI50 (HCT-15) [µM]	GI50 (RXF 393)	GI50 (NCI/ADR-RES)	GI50 (HCT-116)	GI50 (SF-295)	GI50 (T47D)	GI50 (NCI-H460)	GI50 (SK-MEL-2)	GI50 (SF-268)	GI50 (A498)	GI50 (K562)	GI50 (SNB-19)	GI50 (OVCAR-4)	GI50 (A549)	GI50 (OVCAR-5)	GI50 (MDA-MB-435)	GI50 (UO-31)	GI50 (HOP-62)
CC1=C(O)C(=O)c2ccccc2C1=O	82.6 µM (inactive)	> 100 µM (inactive)	27	34.8 µM (inactive)	> 100 µM (inactive)	> 100 µM (inactive)	49.4 µM (inactive)	> 100 µM (inactive)	43.6 µM (inactive)	> 100 µM (inactive)	94.6 µM (inactive)	> 100 µM (inactive)	78.5 µM (inactive)	> 100 µM (inactive)	> 100 µM (inactive)	> 100 µM (inactive)	> 100 µM (inactive)	52.6 µM (inactive)	21.5 µM (inactive)	> 100 µM (inactive)
O=C(O)c1ccc2c(O)c(O)ccc2c1	33.7 µM (inactive)	> 43.1 µM (inactive)	21.6	20.9 µM (inactive)	19.5 µM (inactive)	25.9 µM (inactive)	15.2 µM (inactive)	45.4 µM (inactive)		26.8 µM (inactive)	8.47 µM (inactive)	44.4 µM (inactive)	7.8 µM (inactive)	18.8 µM (inactive)	21.5 µM (inactive)	28 µM (inactive)	26.3 µM (inactive)	14.1 µM (inactive)	19.5 µM (inactive)	20.7 µM (inactive)
O=C(O)CC(NC(=O)Nc1ccc([N+](=O)[O-])cc1)C(=O)Nc1ccc([N+](=O)[O-])cc1 (stereo unspecified)	> 100 µM (inactive)	> 100 µM (inactive)	> 100	> 100 µM (inactive)	> 100 µM (inactive)	> 100 µM (inactive)	> 100 µM (inactive)	> 100 µM (inactive)	> 100 µM (inactive)	> 100 µM (inactive)	9.44 µM (inactive)	> 100 µM (inactive)	> 100 µM (inactive)	> 100 µM (inactive)	> 100 µM (inactive)	> 100 µM (inactive)	> 100 µM (inactive)	> 100 µM (inactive)	> 100 µM (inactive)	> 100 µM (inactive)
O=[N+]([O-])c1ccc(N/N=C/CC(O)(C(F)(F)F)C(F)(F)F)c([N+](=O)[O-])c1	3.24 µM (inactive)	4.8 µM (inactive)	3.01	5.35 µM (inactive)	3.68 µM (inactive)	3.03 µM (inactive)	3.58 µM (inactive)	3.21 µM (inactive)	2.97 µM (inactive)	2.21 µM (inactive)	4.26 µM (inactive)	3.78 µM (inactive)	3.55 µM (inactive)	5.04 µM (inactive)	4.99 µM (inactive)	4.69 µM (inactive)		4.13 µM (inactive)	3.06 µM (inactive)	4.17 µM (inactive)
CC(=O)Nc1nc(Cl)cc(NCC2(CO)CCC2)n1	> 100 µM (inactive)	> 100 µM (inactive)	> 100	> 100 µM (inactive)	> 100 µM (inactive)	> 100 µM (inactive)	> 100 µM (inactive)	> 100 µM (inactive)	> 100 µM (inactive)	> 100 µM (inactive)	> 100 µM (inactive)	> 100 µM (inactive)	> 100 µM (inactive)	> 100 µM (inactive)	> 100 µM (inactive)	> 100 µM (inactive)	> 100 µM (inactive)	> 100 µM (inactive)	> 100 µM (inactive)	> 100 µM (inactive)
CC1=NNC(=S)NCCCN2CCN(CCCNC(=S)NN=C(C)C=NNC(=S)NCCCN3CCN(CCCNC(=S)NN=C1)CC3)CC2	> 100 µM (inactive)	> 100 µM (inactive)	> 100	> 100 µM (inactive)	> 100 µM (inactive)	> 100 µM (inactive)	> 100 µM (inactive)	> 100 µM (inactive)		> 100 µM (inactive)	> 100 µM (inactive)	> 100 µM (inactive)	> 100 µM (inactive)	> 100 µM (inactive)	> 100 µM (inactive)	> 100 µM (inactive)	> 100 µM (inactive)	> 100 µM (inactive)	> 100 µM (inactive)	> 100 µM (inactive)
O=C(N/N=C(COc1ccc([N+](=O)[O-])cc1)\N=C\c1ccncc1)c1ccncc1	> 100 µM (inactive)	> 100 µM (inactive)	> 100	> 100 µM (inactive)	> 100 µM (inactive)	> 100 µM (inactive)	> 100 µM (inactive)	> 100 µM (inactive)	> 100 µM (inactive)	> 100 µM (inactive)	> 100 µM (inactive)	> 100 µM (inactive)	> 100 µM (inactive)	> 100 µM (inactive)	> 100 µM (inactive)	> 100 µM (inactive)	> 100 µM (inactive)	> 100 µM (inactive)		> 100 µM (inactive)
CC(=O)N1C(=O)/C(=C\C(=O)c2ccc([N+](=O)[O-])cc2)c2ccccc21	21.8 µM (inactive)	> 100 µM (inactive)	15	29.1 µM (inactive)	44.4 µM (inactive)	18 µM (inactive)	> 100 µM (inactive)	20.5 µM (inactive)	20.1 µM (inactive)	> 100 µM (inactive)	22.6 µM (inactive)	> 100 µM (inactive)	9.18 µM (inactive)	43.2 µM (inactive)	14.4 µM (inactive)	> 100 µM (inactive)	54.2 µM (inactive)	25.6 µM (inactive)	19 µM (inactive)	36.4 µM (inactive)
Cc1ccc(/N=N/c2c(O)ccc3ccccc23)cc1	83 µM (inactive)	> 100 µM (inactive)	64	> 100 µM (inactive)	> 100 µM (inactive)	> 100 µM (inactive)	> 100 µM (inactive)	> 100 µM (inactive)		> 100 µM (inactive)	> 100 µM (inactive)	> 100 µM (inactive)	> 10 µM (inactive)	95.7 µM (inactive)	> 100 µM (inactive)	> 100 µM (inactive)	> 100 µM (inactive)	> 100 µM (inactive)	> 100 µM (inactive)	82 µM (inactive)
C1CSC(Sc2nc(SC3=NCCS3)nc(SC3=NCCS3)n2)=N1	> 100 µM (inactive)	> 100 µM (inactive)	> 100	> 100 µM (inactive)	> 100 µM (inactive)	> 100 µM (inactive)	> 100 µM (inactive)	> 100 µM (inactive)	> 100 µM (inactive)	> 100 µM (inactive)	> 100 µM (inactive)	> 100 µM (inactive)	> 100 µM (inactive)	> 100 µM (inactive)	> 100 µM (inactive)	> 100 µM (inactive)	> 100 µM (inactive)	> 100 µM (inactive)	> 100 µM (inactive)	> 100 µM (inactive)
COc1ccc(/C=C2/C(=O)C(c3ccccc3)N(c3ccccc3)C2=O)cc1OC (stereo unspecified)	> 10 µM (inactive)	> 10 µM (inactive)	> 10	> 10 µM (inactive)	> 10 µM (inactive)	> 10 µM (inactive)	> 10 µM (inactive)	> 10 µM (inactive)	> 10 µM (inactive)	> 10 µM (inactive)	> 10 µM (inactive)	1.41 µM (inactive)		> 10 µM (inactive)	> 10 µM (inactive)	> 10 µM (inactive)	> 10 µM (inactive)	> 10 µM (inactive)	> 10 µM (inactive)	> 10 µM (inactive)
O=C(Nc1cc(C(=O)Nc2cccc(S(=O)(=O)O)c2)cc(C(=O)Nc2cccc(S(=O)(=O)O)c2)c1)c1cccc(C(=O)Nc2cc(C(=O)Nc3cccc(S(=O)(=O)O)c3)cc(C(=O)Nc3cccc(S(=O)(=O)O)c3)c2)c1	> 100 µM (inactive)	> 100 µM (inactive)	50.7	> 100 µM (inactive)	> 100 µM (inactive)	> 100 µM (inactive)	> 100 µM (inactive)	> 100 µM (inactive)	> 100 µM (inactive)	> 100 µM (inactive)	> 100 µM (inactive)	84.7 µM (inactive)	25.6 µM (inactive)		> 100 µM (inactive)	> 100 µM (inactive)	> 100 µM (inactive)	> 100 µM (inactive)	> 100 µM (inactive)	> 100 µM (inactive)
CN(C)c1n2c3cc([N+](=O)[O-])ccc3[n+]3c(N(C)C)n4ccccc4c3c2c2cccc[n+]12.[O-][Cl+3]([O-])([O-])[O-].[O-][Cl+3]([O-])([O-])[O-]	> 100 µM (inactive)	> 100 µM (inactive)	> 100	> 100 µM (inactive)	> 100 µM (inactive)	> 100 µM (inactive)	> 100 µM (inactive)	73.3 µM (inactive)	> 100 µM (inactive)	> 100 µM (inactive)	29.7 µM (inactive)	> 100 µM (inactive)	> 100 µM (inactive)	43.1 µM (inactive)	> 100 µM (inactive)	> 100 µM (inactive)	> 100 µM (inactive)	> 100 µM (inactive)	> 100 µM (inactive)	> 100 µM (inactive)
Oc1ccc(/C=C/c2cc(O)cc3c2C(c2cc(O)cc(O)c2)C(c2ccc(O)c(O)c2)O3)cc1 (stereo unspecified)	31.3 µM (inactive)	32.5 µM (inactive)	20	41.3 µM (inactive)	31.8 µM (inactive)	35.9 µM (inactive)	36.6 µM (inactive)	13.1 µM (inactive)		28.4 µM (inactive)	30.6 µM (inactive)	33.5 µM (inactive)		18.6 µM (inactive)	16.8 µM (inactive)	45.6 µM (inactive)	35.6 µM (inactive)	32.6 µM (inactive)	30.9 µM (inactive)	35.9 µM (inactive)
